Assay results reported in PubChem BioAssay (NCI).
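Dose response: 5 concentrations. Exposure: 48 h. Format: 96-well plates. Endpoint: linear interpolation; highest concentration if not reached. The concentration for 50% growth inhibition is given as GI50. TGI marks complete inhibition of growth.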

Assays:
Test in all cases: NCI-60 cell line screen, 48 h
U251 CNS = system: U251 CNS
SN12C renal = system: SN12C renal
KM12 colon = system: KM12 colon
UACC-257 melanoma = system: UACC-257 melanoma
NCI-H522 lung = system: NCI-H522 lung
SNB-75 CNS = system: SNB-75 CNS
SK-MEL-28 melanoma = system: SK-MEL-28 melanoma
EKVX NSCLC = system: EKVX NSCLC
HS 578T breast = system: HS 578T breast
T-47D breast = system: T-47D breast
BT-549 breast = system: BT-549 breast
OVCAR-8 ovarian = system: OVCAR-8 ovarian
SNB-19 CNS = system: SNB-19 CNS
SK-OV-3 ovarian = system: SK-OV-3 ovarian
SK-MEL-5 melanoma = system: SK-MEL-5 melanoma
SW-620 colon = system: SW-620 colon
CCRF-CEM leukemia = system: CCRF-CEM leukemia
K-562 leukemia = system: K-562 leukemia
MDA-MB-231 breast = system: MDA-MB-231 breast
SF-268 CNS = system: SF-268 CNS
DU-145 prostate = system: DU-145 prostate
OVCAR-5 ovarian = system: OVCAR-5 ovarian
LOX IMVI melanoma = system: LOX IMVI melanoma
SF-539 CNS = system: SF-539 CNS
TK-10 renal = system: TK-10 renal
HT29 colon = system: HT29 colon
NCI-H23 lung = system: NCI-H23 lung
PC-3 prostate = system: PC-3 prostate
HL-60(TB) leukemia = system: HL-60(TB) leukemia
A549 NSCLC = system: A549 NSCLC
NCI/ADR-RES ovarian = system: NCI/ADR-RES ovarian
HCT-15 colon = system: HCT-15 colon
OVCAR-3 ovarian = system: OVCAR-3 ovarian
SK-MEL-2 melanoma = system: SK-MEL-2 melanoma
HCC-2998 colon = system: HCC-2998 colon
RXF 393 renal = system: RXF 393 renal
UACC-62 melanoma = system: UACC-62 melanoma
ACHN renal = system: ACHN renal
MCF7 breast = system: MCF7 breast
MOLT-4 leukemia = system: MOLT-4 leukemia
SF-295 CNS = system: SF-295 CNS
HOP-92 NSCLC = system: HOP-92 NSCLC
MALME-3M melanoma = system: MALME-3M melanoma
NCI-H226 lung = system: NCI-H226 lung
UO-31 renal = system: UO-31 renal
HOP-62 NSCLC = system: HOP-62 NSCLC
NCI-H460 lung = system: NCI-H460 lung
RPMI-8226 leukemia = system: RPMI-8226 leukemia
COLO 205 colon = system: COLO 205 colon
M14 melanoma = system: M14 melanoma
786-0 renal = system: 786-0 renal
SR leukemia = system: SR leukemia
OVCAR-4 ovarian = system: OVCAR-4 ovarian
MDA-MB-435 = system: MDA-MB-435
HCT-116 colon = system: HCT-116 colon
IGROV1 ovarian = system: IGROV1 ovarian
CAKI-1 renal = system: CAKI-1 renal

CC(C)=CCc1c2c(c(O)c3c1O[C@]14C(=C[C@@H]5C[C@H]1C(C)(C)O[C@@]4(C/C=C(/C)C(=O)O)C5=O)C3=O)C=CC(C)(C)O2
GI50 (U251 CNS): 10.4 µM | TGI (U251 CNS): 22.6 µM | GI50 (SN12C renal): 17.5 µM | TGI (SN12C renal): 46.3 µM | GI50 (KM12 colon): 16.7 µM | TGI (KM12 colon): 33.5 µM | GI50 (UACC-257 melanoma): 12.7 µM | TGI (UACC-257 melanoma): 28 µM | GI50 (NCI-H522 lung): 16 µM | TGI (NCI-H522 lung): 30.3 µM | GI50 (SNB-75 CNS): 13.9 µM | TGI (SNB-75 CNS): 32.4 µM | GI50 (SK-MEL-28 melanoma): 15 µM | TGI (SK-MEL-28 melanoma): 30.1 µM | GI50 (EKVX NSCLC): 17.2 µM | TGI (EKVX NSCLC): 41.4 µM | GI50 (HS 578T breast): 17.3 µM | TGI (HS 578T breast): 58.9 µM | GI50 (T-47D breast): 10 µM | TGI (T-47D breast): 31.1 µM | GI50 (BT-549 breast): 14.4 µM | TGI (BT-549 breast): 29.1 µM | GI50 (OVCAR-8 ovarian): 12.7 µM | TGI (OVCAR-8 ovarian): 33.6 µM | GI50 (SNB-19 CNS): 17.2 µM | TGI (SNB-19 CNS): 33.6 µM | GI50 (SK-OV-3 ovarian): 24.7 µM | TGI (SK-OV-3 ovarian): 51.3 µM | GI50 (SK-MEL-5 melanoma): 16.4 µM | TGI (SK-MEL-5 melanoma): 30.7 µM | GI50 (SW-620 colon): 4.06 µM | TGI (SW-620 colon): 17.4 µM | GI50 (CCRF-CEM leukemia): 0.987 µM | TGI (CCRF-CEM leukemia): 23.4 µM | GI50 (K-562 leukemia): 6.43 µM | TGI (K-562 leukemia): > 100 µM | GI50 (MDA-MB-231 breast): 13.2 µM | TGI (MDA-MB-231 breast): 33.7 µM | GI50 (SF-268 CNS): 15.4 µM | TGI (SF-268 CNS): 31.4 µM | GI50 (DU-145 prostate): 15.6 µM | TGI (DU-145 prostate): 29 µM | GI50 (OVCAR-5 ovarian): 17.6 µM | TGI (OVCAR-5 ovarian): 36.3 µM | GI50 (LOX IMVI melanoma): 3.51 µM | TGI (LOX IMVI melanoma): 14.4 µM | GI50 (SF-539 CNS): 16.5 µM | TGI (SF-539 CNS): 35.1 µM | GI50 (TK-10 renal): 18 µM | TGI (TK-10 renal): 32.3 µM | GI50 (HT29 colon): 12.9 µM | TGI (HT29 colon): 32.6 µM | GI50 (NCI-H23 lung): 19.6 µM | TGI (NCI-H23 lung): 49.4 µM | GI50 (PC-3 prostate): 14 µM | TGI (PC-3 prostate): 31.1 µM | GI50 (HL-60(TB) leukemia): 12 µM | TGI (HL-60(TB) leukemia): 43.2 µM | GI50 (A549 NSCLC): 20.9 µM | TGI (A549 NSCLC): 45.6 µM | GI50 (NCI/ADR-RES ovarian): 21.3 µM | TGI (NCI/ADR-RES ovarian): 75.3 µM | GI50 (HCT-15 colon): 6.65 µM | TGI (HCT-15 colon): 33.8 µM | GI50 (OVCAR-3 ovarian): 10.2 µM | TGI (OVCAR-3 ovarian): 22 µM | GI50 (SK-MEL-2 melanoma): 18.1 µM | TGI (SK-MEL-2 melanoma): 38.5 µM | GI50 (HCC-2998 colon): 18.5 µM | TGI (HCC-2998 colon): 35.9 µM | GI50 (RXF 393 renal): 12.6 µM | TGI (RXF 393 renal): 28.2 µM | GI50 (UACC-62 melanoma): 15.3 µM | TGI (UACC-62 melanoma): 32.2 µM | GI50 (ACHN renal): 12.2 µM | TGI (ACHN renal): 25.7 µM | GI50 (MCF7 breast): 5.59 µM | TGI (MCF7 breast): 42.4 µM | GI50 (MOLT-4 leukemia): 14.3 µM | TGI (MOLT-4 leukemia): 63 µM | GI50 (SF-295 CNS): 17.7 µM | TGI (SF-295 CNS): 36.5 µM | GI50 (HOP-92 NSCLC): 11.7 µM | TGI (HOP-92 NSCLC): 26.7 µM | GI50 (MALME-3M melanoma): 13.1 µM | TGI (MALME-3M melanoma): 27.8 µM | GI50 (NCI-H226 lung): 21.7 µM | TGI (NCI-H226 lung): 50.2 µM | GI50 (UO-31 renal): 9.78 µM | TGI (UO-31 renal): 23.1 µM | GI50 (HOP-62 NSCLC): 15.4 µM | TGI (HOP-62 NSCLC): 31.5 µM | GI50 (NCI-H460 lung): 15.8 µM | TGI (NCI-H460 lung): 32.1 µM | GI50 (RPMI-8226 leukemia): 3.19 µM | TGI (RPMI-8226 leukemia): 13.9 µM | GI50 (COLO 205 colon): 17 µM | TGI (COLO 205 colon): 37.9 µM | GI50 (M14 melanoma): 12.8 µM | TGI (M14 melanoma): 29.5 µM | GI50 (786-0 renal): 4.27 µM | TGI (786-0 renal): 16.4 µM | GI50 (SR leukemia): 3.13 µM | TGI (SR leukemia): > 100 µM | GI50 (OVCAR-4 ovarian): 15.6 µM | TGI (OVCAR-4 ovarian): 36.8 µM | GI50 (MDA-MB-435): 14.3 µM | TGI (MDA-MB-435): 29.5 µM | GI50 (HCT-116 colon): 11.4 µM | TGI (HCT-116 colon): 24.2 µM | GI50 (IGROV1 ovarian): 4.64 µM | TGI (IGROV1 ovarian): 17.7 µM | GI50 (CAKI-1 renal): 16.6 µM | TGI (CAKI-1 renal): 32.1 µM
